This note sets out measurements from ChEMBL document CHEMBL4007424, “Design and Synthesis of Enantiomerically Pure Decahydroquinoxalines as Potent and Selective κ-Opioid Receptor Agonists with Anti-Inflammatory Activity in Vivo” (J Med Chem, 2017).

For data set [1], the system named is Mus musculus. Kind of data set: Antiinflammatory activity in arachidonic acid-induced ear dermatitis ICR mouse model assessed as reduction in ear swelling at 3 mg administered tropically 30 mins prior and 15 min after arachidonic acid addition measured 60 mins post arachidonic acid challenge relative to control. Type of data set: functional.
For data set [2], the system named is Mus musculus. Put plainly: Antiinflammatory activity in arachidonic acid-induced ear dermatitis ICR mouse model assessed as reduction in ear swelling at 0.1 mg administered twice tropically 30 mins prior and 15 mins after arachidonic acid addition measured 60 mins post arachidonic acid challenge relative to control. Type of data set: functional.
Data set [3] relates to Mus musculus. Put plainly: Antiinflammatory activity in arachidonic acid-induced ear dermatitis ICR mouse model assessed as reduction in ear swelling at 3 mg administered twice tropically 30 mins prior and 15 mins after arachidonic acid addition measured 60 mins post arachidonic acid challenge relative to control. Type of data set: functional.
The target in data set [4] is Kappa-type opioid receptor (Cavia porcellus, UniProt P41144). Put plainly: Displacement of [3H]U-69,593 from kappa-type opioid receptor in guinea pig brain membranes after 120 mins by solid scintillation counting. Type of data set: cell membranes, Membrane. On the technique in general: Displacement assays read how much labelled ligand stays bound in the presence of the test substance.
Sequence of Kappa-type opioid receptor (Cavia porcellus, UniProt P41144) (P41144 whole entry): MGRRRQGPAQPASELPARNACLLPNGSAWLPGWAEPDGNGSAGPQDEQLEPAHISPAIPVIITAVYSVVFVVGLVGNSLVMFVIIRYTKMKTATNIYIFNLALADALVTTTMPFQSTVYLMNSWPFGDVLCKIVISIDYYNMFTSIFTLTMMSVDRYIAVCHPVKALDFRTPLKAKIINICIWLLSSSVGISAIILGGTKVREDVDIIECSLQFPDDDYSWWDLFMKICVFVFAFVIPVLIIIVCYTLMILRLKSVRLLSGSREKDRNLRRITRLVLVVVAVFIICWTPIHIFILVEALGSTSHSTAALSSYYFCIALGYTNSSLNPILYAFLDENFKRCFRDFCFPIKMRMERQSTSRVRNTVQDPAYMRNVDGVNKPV

In the next data set the target is Mu-type opioid receptor (Cavia porcellus, UniProt P97266). Kind of data set: Displacement of [3H]DAMGO from mu-type opioid receptor in guinea pig brain membranes after 120 mins by solid scintillation counting. In kind it is cell membranes, Membrane.
Sequence of Mu-type opioid receptor (P97266 whole entry): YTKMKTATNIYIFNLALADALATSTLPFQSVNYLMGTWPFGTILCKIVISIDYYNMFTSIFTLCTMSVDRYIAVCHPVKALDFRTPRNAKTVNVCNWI
A short description of data set [5]: Displacement of [3H]DPDPE from delta-type opioid receptor in guinea pig brain membranes after 120 mins by solid scintillation counting. Type of data set: cell membranes, Cavia porcellus, Membrane.
For data set [6], the target named is Kappa-type opioid receptor (Homo sapiens, UniProt P41145). Kind of data set: Agonist activity at recombinant human kappa-type opioid receptor expressed in HEK293 cells after 30 mins by [35S]GTPgammaS binding assay. In kind it is functional, cell-based. Background: GTPγS resists hydrolysis and so accumulates on activated G proteins.
Sequence of Kappa-type opioid receptor (Homo sapiens, UniProt P41145) (P41145 whole entry): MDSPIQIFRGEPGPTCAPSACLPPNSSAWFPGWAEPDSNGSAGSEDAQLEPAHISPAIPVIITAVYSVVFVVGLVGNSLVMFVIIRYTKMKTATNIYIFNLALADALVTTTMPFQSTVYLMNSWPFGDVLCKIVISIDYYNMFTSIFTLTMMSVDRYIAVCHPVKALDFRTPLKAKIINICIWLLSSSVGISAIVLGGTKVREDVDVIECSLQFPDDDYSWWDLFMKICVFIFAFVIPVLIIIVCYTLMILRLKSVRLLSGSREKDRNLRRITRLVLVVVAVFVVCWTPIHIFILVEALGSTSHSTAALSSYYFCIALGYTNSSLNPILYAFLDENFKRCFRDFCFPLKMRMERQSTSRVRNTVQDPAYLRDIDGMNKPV
The nature of data set [7]: Lipophilicity, logD of the compound at pH 7.4 by LC/MS analysis. Type of data set: physicochemical. Conditions: buffer.
The test system of data set [8] is Mus musculus. Kind of data set: Antiinflammatory activity in arachidonic acid-induced ear dermatitis ICR mouse model assessed as reduction in ear swelling at 0.3 mg administered twice tropically 30 mins prior and 15 mins after arachidonic acid addition measured 60 mins post arachidonic acid challenge relative to control. Type of data set: functional.
For data set [9], the system named is Mus musculus. Kind of data set: Antiinflammatory activity in arachidonic acid-induced ear dermatitis ICR mouse model assessed as reduction in ear swelling at 1 mg administered twice tropically 30 mins prior and 15 mins after arachidonic acid addition measured 60 mins post arachidonic acid challenge relative to control. In kind it is functional.
Data set [10] concerns Mus musculus. Kind of data set: Antiinflammatory activity in tropically administered oxazolone-induced delayed type hypersensitivity BALB/c mouse model assessed as reduction in CD4+ cells per 0.1 mm2 at 2.5 mg administered 3 hrs prior to oxazolone challenge on day 7 to 12 post sensitization followed by re-administration of compound on day 13 to 18 without oxazolone challenge measured on day 19 by DAPI-staining based fluorescence microscopic analysis relative to control. Type of data set: functional.

The test system of data set [11] is Mus musculus. Kind of data set: Antiinflammatory activity in tropically administered oxazolone-induced delayed type hypersensitivity BALB/c mouse model assessed as reduction in CD8+ cells per 0.1 mm2 at 2.5 mg administered 3 hrs prior to oxazolone challenge on day 7 to 12 post sensitization followed by re-administration of compound on day 13 to 18 without oxazolone challenge measured on day 19 by DAPI-staining based fluorescence microscopic analysis relative to control. Type of data set: functional.

A short description of data set [12]: Displacement of [3H]-(+)-MK 801 from PCP binding site of NMDA receptor in pig brain cortex membranes after 120 mins by solid scintillation counting. Type of data set: cell membranes, Sus scrofa.
The nature of data set [13]: Plasma concentration in Wistar Han rat at 5 mg/kg, iv measured 0.25 hrs post compound administration. In kind it is ADME, organism-based.
Data set [14] in a line: Plasma concentration in Wistar Han rat at 5 mg/kg, iv measured 1 hr post compound administration. In kind it is ADME, organism-based.
Data set [15] in a line: Drug level in Wistar Han rat brain at 5 mg/kg, iv measured 1 hr post compound administration. In kind it is ADME, organism-based. Conditions: read-out: Drug uptake.
Data set [16] is described as follows: Ratio of drug level in brain to plasma in Wistar Han rat at 5 mg/kg, iv after 1 hr. In kind it is ADME, organism-based. Conditions: read-out: BPR.
For data set [17], the system named is Rattus norvegicus. Put plainly: Toxicity in Wistar Han rat assessed as severe lethargy at 5 mg/kg, iv after 0.25 hrs. Conditions: in vivo. Type of data set: organism-based.
Data set [18] has as its system Rattus norvegicus. Put plainly: Toxicity in Wistar Han rat assessed as moderate tonic spasms at 5 mg/kg, iv after 0.25 hrs. As to conditions: in vivo. Type of data set: organism-based.
The subject of data set [19] is Rattus norvegicus. Kind of data set: Toxicity in Wistar Han rat assessed as moderate extension spasms of the tail at 5 mg/kg, iv after 0.25 hrs. Type of data set: organism-based. As to conditions: in vivo.
For data set [20], the system named is Rattus norvegicus. Kind of data set: Toxicity in Wistar Han rat assessed as severe cramped posture at 5 mg/kg, iv after 0.25 hrs. Type of data set: organism-based. As to conditions: in vivo.
For data set [21], the system named is Rattus norvegicus. Put plainly: Toxicity in Wistar Han rat assessed as flat posture at 5 mg/kg, iv after 0.25 hrs. In kind it is organism-based. Conditions: in vivo.
Data set [22] relates to Rattus norvegicus. Kind of data set: Toxicity in Wistar Han rat assessed as severe lethargy at 5 mg/kg, iv after 1 hr. Type of data set: organism-based. As to conditions: in vivo.
The subject of data set [23] is Rattus norvegicus. Put plainly: Toxicity in Wistar Han rat assessed as moderate tonic spasms at 5 mg/kg, iv after 1 hr. As to conditions: in vivo. In kind it is organism-based.
Data set [24] concerns Rattus norvegicus. Kind of data set: Toxicity in Wistar Han rat assessed as moderate extension spasms of the tail at 5 mg/kg, iv after 1 hr. In kind it is organism-based. As to conditions: in vivo.
The subject of data set [25] is Rattus norvegicus. Kind of data set: Toxicity in Wistar Han rat assessed as severe cramped posture at 5 mg/kg, iv after 1 hr. Type of data set: organism-based. As to conditions: in vivo.
Data set [26] has as its system Rattus norvegicus. Put plainly: Toxicity in Wistar Han rat assessed as flat posture at 5 mg/kg, iv after 1 hr. In kind it is organism-based. Conditions: in vivo.

`COc1ccc2c(c1)c(CC(=O)O)c(C)n2C(=O)c1ccc(Cl)cc1` [INDOMETHACIN]: the results for the “inhibition (INH)” value in the data set on Mus musculus [1], with Mus musculus [2] and in the data set on Mus musculus [3] were 38%, 38 - 65% and 38 - 65%, respectively.

As usually defined, the Ki is the equilibrium dissociation constant of an inhibitor or competing ligand from its target. Read a low Ki as a stronger hold on the target. The term EC50 denotes the concentration giving half of the maximal effect. As usually defined, the logD is lipophilicity at a set pH, counting ionised and neutral species. For the compound `CS(=O)(=O)N1CCN(C(=O)Cc2ccc(Cl)c(Cl)c2)[C@@H]2[C@@H](N3CC[C@H](O)C3)CCC[C@@H]21`, the results for the inhibition constant Ki (in [4]; on Mu-type opioid receptor; in data set [5]) were 0.63 nM, 336 nM and 367 nM, respectively. Besides, the EC50 in data set [6] was 1.8 nM. Moreover, the logD in data set [7] came to 2.41. Moreover, the “inhibition (INH)” value was -4% in the data set with Mus musculus [2]; -4% in the data set on Mus musculus [8]; 32% in the data set on Mus musculus [9]; 56% in the data set on Mus musculus [3]; 45% with Mus musculus [10]; 45% in the data set on Mus musculus [11].

For `CN(C)S(=O)(=O)N1CCN(C(=O)Cc2ccc(Cl)c(Cl)c2)[C@@H]2[C@@H](N3CCCC3)CCC[C@@H]21`, the inhibition constant Ki came out at 0.95 nM in data set [4], 21 nM on Mu-type opioid receptor, 11 nM in data set [5] and 2500 nM in data set [12]. Also, in data set [6], the concentration giving a half-maximal response (EC50) stood at 2.2 nM.

For the compound `COC(=O)N1CCN(C(=O)Cc2ccc(F)c(Cl)c2)[C@@H]2[C@@H](N3CC[C@H](F)C3)CCC[C@@H]21.Cl`, the concentration at 0.25 h in data set [13] came out at 3070 ng/mL. Moreover, the results for the concentration at 1 h in [14] and in data set [15] were 811 ng/mL and 86.6 ng/g, respectively. Further, in data set [16], the Kp at 1 h worked out at 0.11. Moreover, the Activity result in the data set on Rattus norvegicus [17], in the data set on Rattus norvegicus [18], in the data set with Rattus norvegicus [19], with Rattus norvegicus [20], in the data set with Rattus norvegicus [21] and with Rattus norvegicus [22] was “Toxic” in each case. Also, the Activity entry in the data set on Rattus norvegicus [23], with Rattus norvegicus [24], with Rattus norvegicus [25] and with Rattus norvegicus [26] was “Toxic” throughout.
